The experiment relates to CEM cells HIV-1 protection, formazan growth assay. Nature of the experiment: NCI AIDS Antiviral Assay. The note with it: for IC50: measured here: growth of uninfected CEM cells. In outline: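 Soluble formazan readout of cell growth; CEM cells ± HIV-1; 5 drug concs. ≥50% protection → retest; ≥50% again = moderately active; reproducible 100% = confirmed active.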

Activity calls are given as the source filed them.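 The calls were made as follows: active = compounds giving half or more protection of infected cells from virus-caused growth loss, again on retest; inactive = the rest.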 Where only a bound is given, the exact number is not on record here.

One may read the EC50 as the midpoint of the concentration-response curve. As a reminder, the IC50 is the concentration needed to halve the response being measured. In the case of `O=C(O)c1c2c(cc3c(=O)c4ccccc4[nH]c13)CCCC2`, the EC50 was > 617 µM and the IC50 came out at 85.1 µM. On to `Cc1cc(CC(O)(C(F)(F)F)C(F)(F)F)cc(CC(O)(C(F)(F)F)C(F)(F)F)n1`, for which the outcome was inactive. Turning to `CC1(C2COC(=O)C2)SCCCS1` (stereo not given), the EC50 was > 100 µM and the IC50 stood at 60.3 µM.

Turning to `CNC(=S)NNc1ncnc2c1c(-c1ccc(Cl)cc1)cn2-c1ccc(C)cc1`, the outcome was inactive. Consider `CCOC(=O)c1nc2ccccc2nc1Oc1cc(OC)c(OC)c(OC)c1`, for which the EC50 is > 100 µM and the IC50 was > 100 µM.

Regarding `CCC1=C(C(C)=O)[C@@H]2CCCCC(C(=O)OC)[C@@H]2C1=O` (stereo not given in full), the EC50 was > 200 µM and the IC50 is > 200 µM. Turning to `Cc1cn(C2CC(ONC(N)=O)C(CO[Si](C)(C)C(C)(C)C)O2)c(=O)[nH]c1=O` (stereo not given), the EC50 was > 200 µM and the half-inhibitory concentration (IC50) was 105 µM. Take `COc1cc(C(c2cccc3ccccc23)N2C(=O)CCC2C(=O)O)cc(OC)c1OC` (stereo not given): the EC50 was > 200 µM and the IC50 is > 200 µM.

Consider `CC1=CC(N2C(=O)C(C)=CC2O)NC1=O` (stereo not given), for which the outcome was inactive. As to `Cc1cc2ccccc2n1S(=O)(=O)c1ccccc1`, the EC50 is > 95.5 µM and the IC50 is > 95.5 µM. As to `O=C(CC(=O)c1ccccc1)CC(=O)c1ccccc1`, the EC50 is > 19.5 µM and the IC50 was > 19.5 µM. Turning to `Cc1n[nH]c(=S)n1NC=O`, the EC50 was > 200 µM and the IC50 is > 200 µM.

For `Clc1ccc(NC2=NCCN=C(Nc3ccc(Cl)c(Cl)c3)SS2)cc1Cl`, the EC50 was > 11.2 µM and the IC50 is > 11.2 µM.

Take `CCOC(=O)N1CCN(C(=O)Nc2cccc3ccccc23)CC1`: the outcome was inactive. The same measure, in the same setting: the same measure for `c1ccc(-c2nc3sccn3n2)cc1`: “inactive”. On to `COc1ccc(NCn2nc(CCCCCCCCc3nn(CNc4ccc(OC)cc4)c(=S)o3)oc2=S)cc1`, for which the EC50 was > 200 µM and the concentration for half-maximal inhibition (IC50) came to 158 µM. On the same counts, the results for `O=C(Cc1nc2ccccc2s1)C(=O)Nc1ccccc1C(F)(F)F` are > 70.8 µM and > 70.8 µM. On to `NC1=NCC(c2ccccn2)C1c1ccc(F)cc1` (stereo not given), for which the outcome was inactive.

Consider `N#Cc1c(-c2ccc(Cl)cc2)c(C#N)c(=O)n(NS(=O)(=O)c2ccccc2)c1-c1ccccc1`, for which the EC50 is > 151 µM and the IC50 was 32.4 µM. As to `O=C1c2ccccc2C2(O)Nc3c(ccc4ccccc34)C12O` (stereo not given), the EC50 was > 832 µM and the 50% inhibitory concentration (IC50) was 45.7 µM. Consider `COC(=O)c1ccc(CN2CCc3c([nH]c4ccccc34)C2CO)o1` (stereo not given), for which the EC50 was > 148 µM and the IC50 is 52.5 µM. On the same counts, the results for `O=S(=O)(O)CN(CS(=O)(=O)O)c1nc(N(CS(=O)(=O)O)CS(=O)(=O)O)nc(N(CS(=O)(=O)O)CS(=O)(=O)O)n1` are > 100 µM and 15.5 µM.

For the compound `CC(C)[Si]([Se]c1ccccc1)(C(C)C)C(C)C`, the EC50 is > 21.9 µM and the IC50 was > 21.9 µM.

In the case of `Cn1c([N+](=O)[O-])cnc1N1CCN(c2nncs2)C1=O`, the EC50 is > 200 µM and the 50% inhibitory concentration (IC50) is > 200 µM. `CCN(CC)CCN(C(=Nc1ccccc1)N1CCCCC1)c1ccccc1`: the EC50 was > 200 µM and the half-maximal inhibitory concentration (IC50) came to 1.29 µM. On the same counts, the results for `CC(C)(CN1CCCCC1)C(=O)CC(SCCS(=O)(=O)O)c1ccccc1` (stereo not given) are > 200 µM and 3.31 µM. On the same counts, the results for `O=C(O)c1cc(S(=O)(=O)O)c2cccnc2c1O` are > 200 µM and > 200 µM. As to `O=C(O)CN=c1c2ccccc2n(O)c2ccccc12`, the result was inactive. Take `S=C1c2ccc(Cl)cc2-n2cnnc2C2CSCN12` (stereo not given): the EC50 is > 200 µM and the IC50 is > 200 µM. For the compound `Cc1cn(C(C)OCCO[Si](C)(C)C(C)(C)C)c(=O)[nH]c1=O` (stereo not given), the EC50 is > 200 µM and the half-inhibitory concentration (IC50) is 112 µM. Regarding `CC(=O)NC(CCCCNC(=O)OC(C)(C)C)C(=O)O` (stereo not given), the EC50 was > 200 µM and the IC50 is > 200 µM. As to `CCOc1ccc(O)cc1[P+](c1ccccc1)(c1ccccc1)c1ccccc1`, the outcome was inactive.

`C=CC(C1=CC(=O)C(OC)=CC1=O)c1ccccc1` (stereo not given): the outcome was inactive.

As to `N.N.N.N.N.O=C([O-])CCl.[Co+3].[O-][Cl+3]([O-])([O-])[O-]`, the result was inactive. Same read-out and setting: under `CCCCN(CC)C(=O)COc1cc2c(O)c3c(O)c(C)c4c(c13)C(=O)C(C)(O/C=C\C(OC)C(C)C(OC(C)=O)C(C)C(O)C(C)C(O)C(C)/C=C\C=C(\C)C(=O)N2)O4` (stereo not given) stands “inactive”. `O=C(OCCN1CCOCC1)C1C[C@@H](O)CN1C(=O)c1ccc2c(c1)OCO2` (stereo not given in full): the EC50 was > 200 µM and the IC50 was > 200 µM.

For the compound `O=C(CC1C(=O)Nc2ccccc2S1(=O)=O)Nc1cccc(Cl)c1` (stereo not given), the EC50 is > 27.5 µM and the 50% inhibitory concentration (IC50) is > 27.5 µM. In the case of `Cc1cccc(C)c1NC(=O)C(=O)C(C#N)c1ccccc1Cl` (stereo not given), the EC50 is > 759 µM and the IC50 is > 759 µM. Take `O=C1/C(=C/c2cccc3ccccc23)CCc2ccc([N+](=O)[O-])cc21`: the EC50 was > 200 µM and the half-inhibitory concentration (IC50) turned out to be 47.9 µM. On the same counts, the results for `Cc1cc2c(cc1Cl)SC(NNC(=O)c1ccncc1)=NS2(=O)=O` are > 200 µM and > 200 µM. Turning to `N.N.N.N.N.O=[N+]([O-])[O-].[Co+3].[O-][Cl+3]([O-])([O-])[O-]`, the result was inactive.

With `CC(SC(=O)Nc1ccc(N=Nc2ccccc2)cc1)C(=O)O` (stereo not given), the outcome was inactive. `COC(=O)C1(C)CCCC2(C)C3CC(CO)C(C(C)C)CC3CCC12` (stereo not given): the EC50 was > 200 µM and the concentration for half-maximal inhibition (IC50) was > 200 µM.

Take `CC(C)(C)SSCC(N)C(=O)O` (stereo not given): the EC50 was > 200 µM and the IC50 was > 200 µM. Take `O=C(CCN(C(=O)O)S(=O)(=O)c1ccc(NC(=O)c2ccccc2)cc1)NC1CCCCC1`: the EC50 is > 525 µM and the IC50 was > 525 µM. `OC[C@H]1N=C(c2cccs2)OC1c1ccccc1` (stereo not given in full): the EC50 is > 200 µM and the half-maximal inhibitory concentration (IC50) was > 200 µM.

For `COC(=O)C[C@](O)(CCCC(C)(C)O)C(=O)O[C@@H]1C(OC)=C[C@]23CCCN2CCc2cc4c(cc2[C@H]13)OCO4`, the EC50 is > 2.29 µM and the IC50 was found to be 0.0138 µM.

As to `CC1=C[C@H]2O[C@@H]3C[C@H]4OC(=O)/C=C\C=C\C(C(C)O)OCC(O)C(C)CC(=O)OC[C@@]2(C[C@@H]1O)[C@]4(C)[C@@]31CO1` (stereo not given in full), the EC50 was > 2 µM and the IC50 came out at 0.0631 µM.

For the compound `O=c1c2ccccc2ncn1COCc1ccccc1`, the EC50 is > 200 µM and the 50% inhibitory concentration (IC50) was > 200 µM. Take `CCOC(=O)/C=C(/C=C\COC1CCCCO1)c1ccccc1` (stereo not given): the EC50 is > 74.1 µM and the IC50 was found to be 36.3 µM. On the same counts, the results for `COC(=O)c1cc(C(c2cc(C(=O)OC)c(O)cc2C)C(Cl)Cl)c(C)cc1O` are > 91.2 µM and 6.46 µM. In the case of `COc1ccc2cc3[n+](cc2c1O)CCc1cc2c(cc1-3)OCO2`, the EC50 was > 347 µM and the IC50 amounted to 6.03 µM. On the same counts, the results for `C[C@@H]1CC[C@]2(C)C3(C)CC[C@]2(OC3=O)[C@@]12CC(c1ccoc1)OC2=O` (stereo not given in full) are > 200 µM and 33.9 µM.

For the compound `Cn1nc(-c2ccccc2)c(C(=O)/C=C/c2ccc(Cl)cc2)c(N2CCCCC2)c1=O`, the EC50 is > 17.8 µM and the half-maximal inhibitory concentration (IC50) is > 17.8 µM.

Consider `CCOC(=O)c1ccc(-c2cc(C)no2)[nH]1`, for which the EC50 was > 200 µM and the concentration for half-maximal inhibition (IC50) was found to be 36.3 µM. On to `O=C(OCCc1ccccc1)c1ccc2c(O)c(O)ccc2c1`, for which the EC50 was > 8.32 µM and the IC50 was 6.03 µM. For `COc1ccc(CCn2c(=O)c3ccccc3n(C)c2=O)cc1`, the EC50 is > 83.2 µM and the IC50 worked out at 32.4 µM.

As for `CC(C)CC(NC(=O)c1ccccc1SC(=O)CCCC[n+]1ccccc1)C(N)=O` (stereo not given), the EC50 was 1.74 µM and the IC50 is 4.07 µM. Take `Cc1c2ccccc2nc(CN2CCCCC2)[n+]1[O-]`: the EC50 was > 200 µM and the IC50 is > 200 µM.

Consider `CCCCCCCCC(=O)N(C)C1C2CN3CCC(O2)C13` (stereo not given), for which the outcome was inactive. As to `COC(=O)/C=C/c1cc(=O)n2c(nc3ccccc32)s1`, the EC50 was > 200 µM and the IC50 is > 200 µM. For `CC1CCCOc2ccc(cc2)C=Nc2ccc(cc2)CCc2ccc(cc2)N=Cc2ccc(cc2)OCCC1` (stereo not given), the EC50 was > 200 µM and the half-maximal inhibitory concentration (IC50) is > 200 µM. In the case of `CC(C)=CCc1c(-c2ccc(O)cc2OC2OC(CO)C(O)C(O)C2O)oc2c3c(cc(O)c2c1=O)OC(C)(C)C=C3` (stereo not given), the EC50 was > 58.9 µM and the IC50 was > 58.9 µM. For the compound `O=C1CC(c2ccccc2)C2(C(=O)NC(=S)NC2=O)C(c2ccccc2)C1` (stereo not given), the EC50 was > 75.9 µM and the IC50 stood at 55 µM. On to `CC(=O)Oc1ccc(CCC(=O)O[C@H](C(=O)O)[C@H](OC(=O)CCc2ccc(OC(C)=O)c(OC(C)=O)c2)C(=O)O)cc1OC(C)=O`, for which the EC50 was > 53.7 µM and the IC50 turned out to be 30.2 µM.

As for `CC(C)CN1CC(=O)N2CCCN2C(=O)C1`, the EC50 is > 407 µM and the half-inhibitory concentration (IC50) is > 407 µM.

Regarding `COC(=O)[C@@H]1C[C@]2(Br)c3ccccc3N(S(=O)(=O)c3ccccc3)[C@@H]2N1C(=O)OC`, the EC50 was > 200 µM and the IC50 was determined as 138 µM. With `COc1cc2c(C)cc(=O)oc2cc1O`, the EC50 was > 457 µM and the IC50 was 148 µM.

In the case of `CCCc1c[nH]c(-c2ccc(-c3cc(CCC)c(C=O)[nH]3)s2)c1`, the EC50 is > 11.5 µM and the IC50 was > 11.5 µM. As to `CCOC(=O)C(NC(C)=O)[CH](c1ccc(OC)cc1)[Sn]([c]1ccccc1)([c]1ccccc1)[c]1ccccc1` (stereo not given), the EC50 was > 200 µM and the IC50 is 1.07 µM. On the same counts, the results for `CCOC(=O)/C=C/CC(C)(C)CCOC(C)=O` are > 200 µM and > 200 µM.

On to `CC1=NC(c2ccccc2)(C2(c3ccccc3)C(c3ccccc3)=C2c2ccccc2)C(=O)O1` (stereo not given), for which the EC50 was > 6.17 µM and the concentration for half-maximal inhibition (IC50) was > 6.17 µM.

Values taken from PubChem BioAssay AID179 (DTP/NCI, 2004).
